{"source": "patent US20100190846A1", "about": "“MICROBICIDAL AGENT AND MICROBICIDAL COMPOSITION” (priority 2006, published 2010)", "type_in_all_cases": "cell-based", "key": {"Yersinia enterocolitica [1]": {"tested_on": "Yersinia enterocolitica", "experiment": "Paper disk method microbicidal test", "conditions": "2.5 mg/mL solution on 8.12 mm paper disk, 0 mg/mL control: 15.65 (flavone, 40% DMSO), — (catechin)", "experimental": "As microbicidal test method for 5,7,4′-trihydroxy-3′,5′-dimethoxyflavone, the paper disk method was employed, by which method the microbicidal activity can be judged even in cases where a solvent has some influences.\nIn paper disk method, sample solutions having various sample concentration are prepared, and the sample solution was absorbed in a special paper disk, followed by drying the paper disk. Onto the plate which is made by mixing a prepared bacterial suspension with agar medium, the paper disks are placed. If the sample has a microbicidal activity, the inhibition ring which indicates the inhibition of bacterial growth is formed such that the center of the ring is coincident with the paper disk. The degree of a microbicidal activity is judged based on the size of the inhibition ring.\nFirst, 4 mg of 5,7,4′-trihydroxy-3′,5′-dimethoxyflavone sample was dissolved in 200 μL to prepare 20 mg/mL sample solution. To 100 μL of this 20 mg/mL sample solution, 100 μL of sterilized water was added to prepare 200 μL of 10 mg/mL sample solution. To the solution, 60 μL DMSO and 140 μL of sterilized water were added to prepare 400 μL of 5.0 mg/mL sample solution. DMSO was used in the concentration of 40%, because the sample precipitated from 30% DMSO. To 350 μL of 5.0 mg/mL sample solution, 140 μL DMSO and 210 μL of sterilized water were added to prepare 700 μL of 2.5 mg/mL sample solution. In the same manner, 1.25 mg/mL and 0.625 mg/mL sample solutions were prepared. As a control, a solution containing 40% DMSO and 60% sterilized water was prepared. […] In a paper disk (8.12 mm diameter), 70 μL of these solutions each was absorbed, and the paper disks were dried for a day.\nAs test bacteria, Staphylococcus aureus, Salmonella sp., Yersinia enterocolitica, Pseudomonas aeruginosa, and Candida sp. were used. These bacteria were mixed with 2 mL of sterilized water to prepare bacterial suspensions having turbidity 1 (10^8/mL). The plate agar was made by mixing 0.2 mL of the bacterial suspension with 19.8 mL of BHI medium. The dried paper disk was placed onto the plate agar, and the plate was incubated in an incubator at 37° C., followed by assessing the activity. In the Table, (-) represents that no microbicidal activity was observed."}, "Escherichia coli": {"tested_on": "Escherichia coli", "experiment": "Agar dilution method microbicidal test", "experimental": "(§1) As microbicidal test method for trans-p-coumaric acid, 3-hydroxypyridine, p-hydroxybenzaldehyde and vanillin, the agar dilution method was employed.\n(§2) In agar dilution method, a solution in which a sample is dissolved is serially diluted several times, and each of the diluted sample solutions is mixed with agar medium to prepare plate agars having various sample concentration. Then bacteria is inoculated onto the plate agars. In cases where the sample has a microbicidal activity, the growth of the bacteria on the plates can be inhibited. The lowest concentration which can inhibit the growth of the bacteria is referred to as Minimum Inhibitory Concentration (MIC), thereby judging the degree of a microbicidal activity of the sample.\n(§3) First, 400 mg of sample was dissolved in 1 mL of DMSO to prepare 400 mg/mL sample solution. Then 0.5 mL of this 400 mg/mL sample solution was diluted 2-fold to prepare 200 mg/mL sample solution. In the same manner, sample solutions of 100 mg/mL, 50.0 mg/mL, and 25.0 mg/mL were prepared. In addition, 300 mg/mL sample solution was prepared. Thereafter, 0.2 mL of these sample solutions each was mixed with 19.8 mL of BHI (Brain Heart Infusion Agar, Becton Dickinson, MD) medium, thereby preparing agar plates having the sample concentration of 4.0 mg/mL, 3.0 mg/mL, 2.0 mg/mL, 1.0 mg/mL, 0.5 mg/mL, and 0.25 mg/mL in dishes. […] Sterilized water was used for dissolving catechin, because catechin was insoluble in DMSO.\n(§4) As test bacteria, 13 kinds of bacteria, i.e., Streptococcus pneumoniae, Streptococcus pyogenes, Enterococcus faecalis, Staphylococcus aureus, Escherichia coli, Salmonella sp., Yersinia enterocolitica, Vibrio parahaemolyticus, Pseudomonas aeruginosa, Bacillus cereus, Bacillus subtilis MB-32, Bacillus subtilis ATCC6633, and Candida sp., were used. These bacteria each was mixed with 2 mL of sterilized MHB^R liquid medium (Mueller Hinton Broth^R, Becton Dickinson, MD) to prepare bacterial suspension having turbidity 1 (bacterial concentration 10^8/mL). Previously, small test tubes were set into each cell of a grating and sterilized, and 1 mL of 13 bacterial suspensions were added into the small test tubes set in the grating, respectively. By using a microplanter (SAKUMA, model: MIT-P), 10 μL aliquot was collected from each test tube set in the grating and transferred to other test tube, and the transferred bacterial suspensions were diluted 100-fold (bacterial concentration 10^6/mL).\n(§5) By using the microplanter, 10 μL (bacterial number […]) of this bacterial suspension was inoculated onto the plates containing the sample solution of various concentrations. The plates were incubated for 18 hours in an incubator at 37° C., and then a microbicidal activity of each compound was assessed."}, "Pseudomonas aeruginosa": {"tested_on": "Pseudomonas aeruginosa", "experiment": "Agar dilution method microbicidal test", "experimental": "as §1, §2, §3, §4, §5"}, "Vibrio parahaemolyticus": {"tested_on": "Vibrio parahaemolyticus", "experiment": "Agar dilution method microbicidal test", "experimental": "as §1, §2, §3, §4, §5"}, "Bacillus subtilis MB-32": {"tested_on": "Bacillus subtilis MB-32", "experiment": "Agar dilution method microbicidal test", "experimental": "as §1, §2, §3, §4, §5"}, "Yersinia enterocolitica [2]": {"tested_on": "Yersinia enterocolitica", "experiment": "Agar dilution method microbicidal test", "experimental": "as §1, §2, §3, §4, §5"}, "Enterococcus faecalis": {"tested_on": "Enterococcus faecalis", "experiment": "Agar dilution method microbicidal test", "experimental": "as §1, §2, §3, §4, §5"}}, "data": [{"substance": "catechin [reference compound]", "values": [{"measurement": "size of the inhibition ring", "setting": "Yersinia enterocolitica [1]", "result": 9.49}, {"measurement": "Growth on agar plate", "setting": "Escherichia coli; 0.25 mg/mL", "result": "+"}, {"measurement": "Growth on agar plate", "setting": "Escherichia coli; 0.5 mg/mL", "result": "+"}, {"measurement": "Growth on agar plate", "setting": "Escherichia coli; 1.0 mg/mL", "result": "+"}, {"measurement": "Growth on agar plate", "setting": "Escherichia coli; 2.0 mg/mL", "result": "+"}, {"measurement": "Growth on agar plate", "setting": "Escherichia coli; 3.0 mg/mL", "result": "+"}, {"measurement": "Growth on agar plate", "setting": "Escherichia coli; 4.0 mg/mL", "result": "+"}, {"measurement": "MIC", "setting": "Escherichia coli; BHI agar, 37° C., 18 hours", "result": 2000, "unit": "µg/mL"}, {"measurement": "Growth on agar plate", "setting": "Pseudomonas aeruginosa; 0.25 mg/mL", "result": "+"}, {"measurement": "Growth on agar plate", "setting": "Pseudomonas aeruginosa; 0.5 mg/mL", "result": "+"}, {"measurement": "Growth on agar plate", "setting": "Pseudomonas aeruginosa; 1.0 mg/mL", "result": "−"}, {"measurement": "Growth on agar plate", "setting": "Pseudomonas aeruginosa; 2.0 mg/mL", "result": "−"}, {"measurement": "Growth on agar plate", "setting": "Pseudomonas aeruginosa; 3.0 mg/mL", "result": "−"}, {"measurement": "Growth on agar plate", "setting": "Pseudomonas aeruginosa; 4.0 mg/mL", "result": "−"}, {"measurement": "MIC", "setting": "Pseudomonas aeruginosa; BHI agar, 37° C., 18 hours", "result": 1000, "unit": "µg/mL"}, {"measurement": "Growth on agar plate", "setting": "Vibrio parahaemolyticus; 0.25 mg/mL", "result": "+"}, {"measurement": "Growth on agar plate", "setting": "Vibrio parahaemolyticus; 0.5 mg/mL", "result": "−"}, {"measurement": "Growth on agar plate", "setting": "Vibrio parahaemolyticus; 1.0 mg/mL", "result": "−"}, {"measurement": "Growth on agar plate", "setting": "Vibrio parahaemolyticus; 2.0 mg/mL", "result": "−"}, {"measurement": "Growth on agar plate", "setting": "Vibrio parahaemolyticus; 3.0 mg/mL", "result": "−"}, {"measurement": "Growth on agar plate", "setting": "Vibrio parahaemolyticus; 4.0 mg/mL", "result": "−"}, {"measurement": "MIC", "setting": "Vibrio parahaemolyticus; BHI agar, 37° C., 18 hours", "result": 500, "unit": "µg/mL"}, {"measurement": "Growth on agar plate", "setting": "Bacillus subtilis MB-32; 0.25 mg/mL", "result": "+"}, {"measurement": "Growth on agar plate", "setting": "Bacillus subtilis MB-32; 0.5 mg/mL", "result": "+"}, {"measurement": "Growth on agar plate", "setting": "Bacillus subtilis MB-32; 1.0 mg/mL", "result": "+"}, {"measurement": "Growth on agar plate", "setting": "Bacillus subtilis MB-32; 2.0 mg/mL", "result": "−"}, {"measurement": "Growth on agar plate", "setting": "Bacillus subtilis MB-32; 3.0 mg/mL", "result": "−"}, {"measurement": "Growth on agar plate", "setting": "Bacillus subtilis MB-32; 4.0 mg/mL", "result": "−"}, {"measurement": "MIC", "setting": "Bacillus subtilis MB-32; BHI agar, 37° C., 18 hours", "result": 2000, "unit": "µg/mL"}, {"measurement": "Growth on agar plate", "setting": "Yersinia enterocolitica [2]; 0.25 mg/mL", "result": "+"}, {"measurement": "Growth on agar plate", "setting": "Yersinia enterocolitica [2]; 0.5 mg/mL", "result": "+"}, {"measurement": "Growth on agar plate", "setting": "Yersinia enterocolitica [2]; 1.0 mg/mL", "result": "−"}, {"measurement": "Growth on agar plate", "setting": "Yersinia enterocolitica [2]; 2.0 mg/mL", "result": "−"}, {"measurement": "Growth on agar plate", "setting": "Yersinia enterocolitica [2]; 3.0 mg/mL", "result": "−"}, {"measurement": "Growth on agar plate", "setting": "Yersinia enterocolitica [2]; 4.0 mg/mL", "result": "−"}, {"measurement": "MIC", "setting": "Yersinia enterocolitica [2]; BHI agar, 37° C., 18 hours", "result": 1000, "unit": "µg/mL"}, {"measurement": "Growth on agar plate", "setting": "Enterococcus faecalis; 0.25 mg/mL", "result": "+"}, {"measurement": "Growth on agar plate", "setting": "Enterococcus faecalis; 0.5 mg/mL", "result": "+"}, {"measurement": "Growth on agar plate", "setting": "Enterococcus faecalis; 1.0 mg/mL", "result": "+"}, {"measurement": "Growth on agar plate", "setting": "Enterococcus faecalis; 2.0 mg/mL", "result": "+"}, {"measurement": "Growth on agar plate", "setting": "Enterococcus faecalis; 3.0 mg/mL", "result": "+"}, {"measurement": "Growth on agar plate", "setting": "Enterococcus faecalis; 4.0 mg/mL", "result": "+"}]}]}
